Measured values published in patent US7846928B2, “Substituted pyrazolopyridines and salts thereof, pharmaceutical compositions comprising same, methods of preparing same and uses of same” (Bayer Schering Pharma AG, priority 2006, dated 2010).

Tests used:
[1] = biological target: T1, human insuline receptor (Ins-R) kinase domain (Homo sapiens, UniProt P06213); assay: InsR HTRF assay (assay 4); type: biochemical; settings: IC50 assay 4/IC50 assay 2
T1 construct: GST-tagged recombinant kinase domain of the human insuline receptor; GST; purchased ProQinase, Freiburg, Germany; host or cells: SF-9 cells
T1 sequence (P06213 1023-1298 limits assumed): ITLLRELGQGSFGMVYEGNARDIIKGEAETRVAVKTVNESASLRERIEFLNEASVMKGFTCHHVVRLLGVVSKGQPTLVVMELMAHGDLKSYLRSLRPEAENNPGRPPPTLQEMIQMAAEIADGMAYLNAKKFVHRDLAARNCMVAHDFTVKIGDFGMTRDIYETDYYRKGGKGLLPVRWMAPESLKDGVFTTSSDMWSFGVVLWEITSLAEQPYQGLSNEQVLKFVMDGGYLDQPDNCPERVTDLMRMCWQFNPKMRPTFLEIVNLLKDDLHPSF
Protocol: Inhibitory activity of compounds against the kinase activity of the insulin receptor was quantified employing the Ins-R HTRF assay as described in the following paragraphs.
GST-tagged recombinant kinase domain of the human insuline receptor (Ins-R, purchase from ProQinase, Freiburg, Germany) expressed in SF-9 cells was used as kinase. As substrate for the kinase reaction biotinylated poly-(Glu,Tyr) (Cis biointernational, France) was used.
Ins-R was incubated for 20 min at 22° C. in the presence of different concentrations of test compounds in 5 μl assay buffer [50 mM Hepes/NaOH pH 7, 15 mM MnCl2, 1 mM dithiothreitol, 0.1 μM sodium ortho-vanadate, 0.015% (v/v) PEG20000, 10 μM adenosine-tri-phosphate (ATP), 0.3 μg/ml substrate, 1% (v/v) dimethylsulfoxide]. The concentration of Ins-R was adjusted depending of the activity of the enzyme lot and was chosen appropriate to have the assay in the linear range, typical concentrations were in the range of 10 pg/μl. The reaction was stopped by the addition of 5 μl of a solution of HTRF detection reagents (0.1 μM streptavidine-XLent and 1 nM PT66-Eu-Chelate, an europium-chelate labelled anti-phosphotyrosine antibody from Perkin Elmer) in an aqueous EDTA-solution (80 mM EDTA, 0.2% (w/v) bovine serum albumin in 50 mM HEPES/NaOH pH 7.0).
The resulting mixture was incubated 1 h at 22° C. to allow the binding of the biotinylated phosphorylated peptide to the streptavidine-XLent and the PT66-Eu-Chelate. Subsequently the amount of phosphorylated substrate was evaluated by measurement of the resonance energy transfer from the PT66-Eu-Chelate to the streptavidine-XLent. Therefore, the fluorescence emissions at 620 nm and 665 nm after excitation at 350 nm was measured in a HTRF reader, e.g. a Rubystar (BMG Labtechnologies, Offenburg, Germany) or a Viewlux (Perkin-Elmer). The ratio of the emissions at 665 nm and at […] was taken as the measure for the amount of phosphorylated substrate. The data were normalised (enzyme reaction without inhibitor=0% inhibition, all other assay components but no enzyme=100% inhibition) and IC50 values were calculated by a 4 parameter fit using an inhouse software.

Tie2 = Tie2 (Homo sapiens, UniProt Q02763); assay: Tie2 ELISA assay (assay 1): cellular Tie2 autophosphorylation in Tie2-transfected CHO cells stimulated by angiopoietin-2; type: cell-based; parameters: expressed in transfected cells; host or cells: CHO (DHFR-deficient), stably transfected: CHO Tie2/DHFR; settings: CHO Tie2/DHFR cells, Ang2 stimulated, Tie2 autophosphorylation sandwich-ELISA; pIC50 = -log IC50 molar; read-out: Tie 2 activity (assay 1)
Sequence of Tie2 (Q02763 23-1124): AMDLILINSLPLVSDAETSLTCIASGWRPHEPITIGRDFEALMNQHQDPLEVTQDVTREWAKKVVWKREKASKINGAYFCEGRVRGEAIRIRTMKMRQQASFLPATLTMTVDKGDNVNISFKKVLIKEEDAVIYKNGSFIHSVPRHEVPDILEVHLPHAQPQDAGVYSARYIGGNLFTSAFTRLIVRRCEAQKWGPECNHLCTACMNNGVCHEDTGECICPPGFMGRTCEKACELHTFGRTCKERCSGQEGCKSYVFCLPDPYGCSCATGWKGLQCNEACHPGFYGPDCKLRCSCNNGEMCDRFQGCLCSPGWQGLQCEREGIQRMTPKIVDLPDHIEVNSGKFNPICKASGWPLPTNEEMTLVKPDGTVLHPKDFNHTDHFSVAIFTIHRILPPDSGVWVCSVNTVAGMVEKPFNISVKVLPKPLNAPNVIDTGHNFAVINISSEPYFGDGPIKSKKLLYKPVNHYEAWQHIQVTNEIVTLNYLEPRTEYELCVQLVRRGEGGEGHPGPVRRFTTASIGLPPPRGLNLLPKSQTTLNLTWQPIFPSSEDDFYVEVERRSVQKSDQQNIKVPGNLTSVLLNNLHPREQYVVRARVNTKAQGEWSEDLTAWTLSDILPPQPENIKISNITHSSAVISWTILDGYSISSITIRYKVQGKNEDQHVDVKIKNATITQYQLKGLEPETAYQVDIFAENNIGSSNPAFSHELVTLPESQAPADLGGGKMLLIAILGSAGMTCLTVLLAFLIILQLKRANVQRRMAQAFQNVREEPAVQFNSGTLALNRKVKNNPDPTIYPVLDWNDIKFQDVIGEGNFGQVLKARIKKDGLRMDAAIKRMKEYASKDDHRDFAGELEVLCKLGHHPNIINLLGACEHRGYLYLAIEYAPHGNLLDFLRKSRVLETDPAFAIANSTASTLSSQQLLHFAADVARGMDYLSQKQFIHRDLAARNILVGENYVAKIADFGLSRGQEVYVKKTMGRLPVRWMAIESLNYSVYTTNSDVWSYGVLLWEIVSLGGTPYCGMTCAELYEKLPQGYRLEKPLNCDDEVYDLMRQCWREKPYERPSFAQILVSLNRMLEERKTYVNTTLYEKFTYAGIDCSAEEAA
Protocol: Cellular activity of compounds of the present invention as inhibitors of Tie2 kinase activity was measured employing a Tie2 ELISA assay as described in the following paragraphs. Herein CHO cell-cultures, which are stably transfected by known techniques with Tie2 using DHFR deficiency as selection marker, are stimulated by angiopoietin-2. The specific autophosphorylation of Tie2 receptors is quantified with a sandwich-ELISA using anti-Tie2 antibodies for catch and anti-phosphotyrosine antibodies coupled to HRP for detection.
• 96 well tissue culture plate, sterile, Greiner • 96 well FluoroNunc plate MaxiSorp Surface C, Nunc • 96 well plate polypropylene for compound dilution in DMSO • CHO Tie2/DHFR (transfected cells) • PBS−; PBS++, DMSO • MEM alpha Medium with Glutamax-I without Ribonucleosides and • Deoxyribonucleosides (Gibco #32561-029) • with 10% FCS after dialysis! and 1% PenStrep • Lysis buffer: 1 Tablet “Complete” protease inhibitor • 1 cap Vanadate (1 mL>40 mg/mL; working solution 2 mM) • ad 50 mL with Duschl-Puffer • pH 7.6 • Anti-Tie2-antibody 1:425 in Coating Buffer pH 9.6 • Stock solution: 1.275 mg/mL>working: 3 μg/mL • PBST: 2 bottles PBS(10×)+10 ml Tween, fill up with VE-water • RotiBlock 1:10 in VE-water • Anti-Phosphotyrosine HRP-Conjugated 1:10000 in 3% TopBlock • 3% TopBlock in PBST • BM Chemiluminescence ELISA Substrate (POD) • solution B1:100 solution A • SF9 cell culture medium • Ang2-Fc in SF9 cell culture medium Cell Experiment: • Dispense 5×10^4 cells/well/98 μL in 96 well tissue culture plate • Incubate at 37° C./5% CO2 • After 24 h add compounds according to desired concentrations • Add also to control and stimulated values without compounds 2 μL DMSO • And mix for a few min at room temperature • Add 100 μL Ang2-Fc to all wells except control, which receives insect medium • Incubate 20 min at 37° C. • Wash 3× with PBS++ • Add 100 μl Lysis buffer/well and shake a couple of min at room temperature • Store lysates at 20° C. before utilizing for the ELISA Performance of Sandwich-ELISA • Coat 96 well FluoroNunc Plate MaxiSorp Surface C with anti-Tie2 mAb • 1:425 in Coating buffer pH 9.6; 100 μL/well overnight at 4° C. • Wash 2× with PBST • Block plates with 250 μL/well RotiBlock 1:10 in VE-water • Incubate for 2 h at room temperature or overnight at 4° C. shaking • Wash 2× in PBST • Add thawed lysates to wells and incubate overnight shaking at 4° C. • Wash 2× with PBST • Add 100 μL/well anti-Phosphotyrosine HRP-Conjugated 1:10000 in 3% • TopBlock (3% TopBlock in PBST) and incubate overnight under shaking • Wash 6× with PBST • Add 100 μL/well BM Chemiluminescence ELISA Substrate (POD) • solutions 1 und 2 (1:100) • Determine luminescence with the LumiCount. Assay 2: Tie-2-Kinase HTRF-Assay without Kinase Preactivation

Compound | Selectivity vs. InsR [1] [fold] | IC50 (Tie2) [nM]
CN1CCN(Cc2ccc(NC(=O)Nc3ccc(-c4ccnc5[nH]ncc45)cc3)cc2C(F)(F)F)CC1 [1.33, 1-[4-(4-Methyl-piperazin-1-yl-methyl)-3-trifluoromethyl-phenyl]-3-[4-(1H-pyrazolo[3,4-b]pyridin-4-yl)-phenyl]-urea] | >20 | < 501
Cc1ccc(F)c(NC(=O)Nc2ccc(-c3ccnc4c3cnn4C)cc2)c1 [1.7, 1-(2-Fluoro-5-methyl-phenyl)-3-[4-(1-methyl-1H-pyrazolo[3,4-b]pyridin-4-yl)-phenyl]-urea] | >20 | < 501
CCc1cccc(NC(=O)Nc2ccc(-c3cc(C(C)(C)C)nc4[nH]ncc34)cc2)c1 [1.1, 1-[4-(6-tert-Butyl-1H-pyrazolo[3,4-b]pyridin-4-yl)-phenyl]-3-(3-ethylphenyl)-urea] | >20 | < 501
Cc1cccc(NC(=O)Nc2ccc(-c3cc(C(C)(C)C)nc4[nH]ncc34)cc2)c1 [1.11, 1-[4-(6-tert-Butyl-1H-pyrazolo[3,4-b]pyridin-4-yl)-phenyl]-3-m-tolyl-urea] | >20 | 501 to 1000
O=C(Nc1ccc(-c2ccnc3[nH]ncc23)cc1)Nc1cccc(C(F)(F)F)c1 [1.20, 1-[4-(1H-Pyrazolo[3,4-b]pyridin-4-yl)-phenyl]-3-(3-trifluoromethyl-phenyl)-urea] | >20 | < 501
